# Values of other authors in patent US5679660A, “Pharmaceutical composition comprising diclofenac and cyclodextrin” (Farmarc Nederland BV, priority 1993, dated 1997).
# Details: literature, Backensfeld and Mueller 1990
smiles,measurement,value
OC[C@H]1O[C@@H]2O[C@H]3[C@H](O)[C@@H](O)[C@@H](O[C@H]4[C@H](O)[C@@H](O)[C@@H](O[C@H]5[C@H](O)[C@@H](O)[C@@H](O[C@H]6[C@H](O)[C@@H](O)[C@@H](O[C@H]7[C@H](O)[C@@H](O)[C@@H](O[C@H]8[C@H](O)[C@@H](O)[C@@H](O[C@H]1[C@H](O)[C@H]2O)O[C@@H]8CO)O[C@@H]7CO)O[C@@H]6CO)O[C@@H]5CO)O[C@@H]4CO)O[C@@H]3CO [Beta-cyclodextrin],effect on aqueous solubility of diclofenac,increase the aqueous solubility
